Results on eleven compounds are retold here after patent publication US7288562B2, “Fluoro and sulphonylamino containing 3,6-disubstituted azabicyclo (3.1.0) hexane derivatives as muscarinic receptor antagonists” (priority 2002, dated 2007).

Where two headings read alike, the source gives them in different places.

For one test, the target named is T1, M2 muscarinic receptor (Rattus norvegicus, UniProt P10980).
T1 construct: from tissue; host or cells: rat heart membrane homogenate
T1 sequence (P10980 1-466): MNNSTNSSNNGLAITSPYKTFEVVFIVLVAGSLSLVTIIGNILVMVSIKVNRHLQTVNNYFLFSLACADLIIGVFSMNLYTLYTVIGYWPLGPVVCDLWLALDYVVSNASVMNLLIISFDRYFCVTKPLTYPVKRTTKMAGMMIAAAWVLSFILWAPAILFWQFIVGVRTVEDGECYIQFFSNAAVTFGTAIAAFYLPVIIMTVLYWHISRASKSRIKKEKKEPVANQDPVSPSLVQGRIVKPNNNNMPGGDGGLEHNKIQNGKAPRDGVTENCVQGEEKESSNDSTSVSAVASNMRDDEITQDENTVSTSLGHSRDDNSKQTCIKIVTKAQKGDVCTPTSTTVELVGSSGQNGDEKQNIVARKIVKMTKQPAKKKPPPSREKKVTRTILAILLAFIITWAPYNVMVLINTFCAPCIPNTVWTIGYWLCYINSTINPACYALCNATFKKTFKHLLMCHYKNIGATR
The test can be described thus: Radioligand binding assay, [3H]-N-methylscopolamine, rat heart membranes. Particulars: [3H]-NMS. The procedure: (§1) The affinity of test compounds for M2 and M3 muscarinic receptor subtypes was determined by [^3H]-N-methylscopolamine binding studies using rat heart and submandibular gland respectively as described by Moriya et al., (Life Sci, 1999, 64(25):2351-2358) with minor modifications.
(§2) Membrane preparation: Submandibular glands and heart were isolated and placed in ice cold homogenising buffer (HEPES 20 mM, 10 mM EDTA, pH 7.4) immediately after sacrifice. The tissues were homogenised in 10 volumes of homogenising buffer and the homogenate was filtered through two layers of wet gauze and filtrate was centrifuged at 500 g for 10 min. The supernatant was subsequently centrifuged at 40,000 g for 20 min. The pellet thus obtained was resuspended in same volume of assay buffer (HEPES 20 mM, EDTA 5 mM, pH 7.4) and were stored at −70° C. until the time of assay.
(§3) Ligand binding assay: The compounds were dissolved and diluted in DMSO. The membrane homogenates (150-250 μg protein) were incubated in 250 μl of assay buffer (HEPES 20 mM, pH 7.4) at 24-25° C. for 3 h. Non-specific binding was determined in the presence of 1 μM atropine. The incubation was terminated by vacuum filtration over GF/B fiber filters(Wallac). The filters were then washed with ice cold 50 mM Tris HCl buffer (pH 7.4). The filter mats were dried and bound radioactivity retained on filters was counted. The IC50 & Kd were estimated by using the non-linear curve fitting program using G Pad Prism software. The value of inhibition constant Ki was calculated from competitive binding studies by using Cheng & Prusoff equation (Biochem Pharmacol, 1973, 22: 3099-3108), Ki=IC50/(1+L/Kd), where L is the concentration of
(§4) [^3H]NMS used in the particular experiment.

Another test concerns the target T2, M3 muscarinic receptor (Rattus norvegicus, UniProt P08483).
T2 construct: from tissue; host or cells: rat submandibular gland membrane homogenate
The experiment in a line: Radioligand binding assay, [3H]-N-methylscopolamine, rat submandibular gland membranes. The conditions noted are these: [3H]-NMS. The procedure:
as §1, §2, §3, §4

The subject of the next test is isolated rat bladder. The experiment in a line: Functional experiments using isolated rat bladder (carbachol-induced contraction). Particulars: isolated rat bladder strips, carbachol concentration response curve. As to the method: Functional Experiments Using Isolated Rat Bladder:
Animals were euthanized by overdose of urethane and whole bladder was isolated and removed rapidly and placed in ice cold Tyrode buffer with the following composition (mMol/L) NaCl 137; KCl 2.7; CaCl2 1.8; MgCl2 0.1; NaHCO3 11.9; NaH2PO4 0.4; Glucose 5.55 and continuously gassed with 95% O2 and 5% CO2.
The bladder was cut into longitudinal strips (3 mm wide and 5-6 mm long) and mounted in 10 ml organ baths at 30° C., with one end connected to the base of the tissue holder and the other end connected to a polygraph through a force displacement transducer. Each tissue was maintained at a constant basal tension of 2 g and allowed to equilibrate for 1 hour during which the PSS was changed every 15 min. At the end of equilibration period the stabilization of the tissue contractile response was assessed with 1 μmol/L of Carbachol consecutively for 2-3 times. Subsequently a cumulative concentration response curve to carbachol (10^−9 mol/L to 3×10^−5 mol/L) was obtained. After several washes, once the baseline was achieved, cumulative concentration response curve was obtained in presence of NCE (NCE added 20 min. prior to the second CRC).
The contractile results were expressed as % of control E max. ED50 values were calculated by fitting a non-linear regression curve (Graph Pad Prism). pKB values were calculated by the formula pKB=−log [(molar concentration of antagonist/(dose ratio-1))]
• dose ratio=ED50 in the presence of antagonist/ED50 in the absence of antagonist.

Where [1] appears, read: read-out: Receptor Binding Assay M2 pKi (converted).
[2] abbreviates: read-out: Receptor Binding Assay M3 pKi (converted).

T2 sequence (P08483 whole entry): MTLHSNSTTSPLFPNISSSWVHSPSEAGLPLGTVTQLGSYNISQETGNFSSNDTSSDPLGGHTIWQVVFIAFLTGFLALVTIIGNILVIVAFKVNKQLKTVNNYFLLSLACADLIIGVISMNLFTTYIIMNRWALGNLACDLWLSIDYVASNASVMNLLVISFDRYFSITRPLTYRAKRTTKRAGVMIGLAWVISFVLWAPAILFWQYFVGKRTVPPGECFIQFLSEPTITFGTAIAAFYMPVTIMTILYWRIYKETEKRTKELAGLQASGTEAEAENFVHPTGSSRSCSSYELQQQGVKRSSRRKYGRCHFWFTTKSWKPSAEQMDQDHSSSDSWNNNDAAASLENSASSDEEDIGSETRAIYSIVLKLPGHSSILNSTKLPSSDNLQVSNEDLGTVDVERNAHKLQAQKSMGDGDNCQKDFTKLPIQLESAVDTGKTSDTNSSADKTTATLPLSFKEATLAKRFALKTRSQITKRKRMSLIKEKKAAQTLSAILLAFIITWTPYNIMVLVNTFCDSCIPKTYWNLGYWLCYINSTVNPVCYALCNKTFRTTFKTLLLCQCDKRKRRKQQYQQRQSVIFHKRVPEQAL

As for `O=C(NCC1C2CN(Cc3ccccc3)CC12)C(O)(c1ccccc1)C1CCC(F)(F)C1` (mixture of isomers) [Compound No. 3, (2Ror 2S)-(1α,5α,6α)-N-[3-benzyl-3-azabicyclo[3.1.0]hexyl-6-(aminomethyl)-yl]-2-[(1R or 1S)-3,3-difluorocyclopentyl]-2-hydroxy-2-phenyl acetamide], the Ki is 251 nM at M2 muscarinic receptor (setting [1]) and 6.31 nM on M3 muscarinic receptor (setting [2]). In addition, the “Functional Assay pKB” value with isolated rat bladder worked out at 8.55 ± 0.25.
On the same counts, the results for `O=C(NC[C@@H]1[C@H]2CN(Cc3ccccc3)C[C@@H]12)[C@](O)(c1ccccc1)C1CCC(F)(F)C1` (single isomer, unassigned) [Compound No. 1A, (2R)-(1α,5α,6α)-N-[3-benzyl-3-azabicyclo[3.1.0]hexyl-6-(aminomethyl)-yl]-2-[(1R or 1S)-3,3-difluorocyclopentyl]-2-hydroxy-2-phenylacetamide] are 135 nM, 5.62 nM and 9.1 ± 0.2.
On the same counts, the results for `O=C(NC[C@@H]1[C@H]2CN(Cc3ccccc3)C[C@@H]12)[C@](O)(c1ccccc1)C1CCC(F)(F)C1` (single isomer, unassigned) [Compound No. 1B, (2R)-(1α,5α,6α)-N-[3-benzyl-3-azabicyclo[3.1.0]hexyl-6-(aminomethyl)-yl]-2-[(1R or 1S)-3,3-difluorocyclopentyl]-2-hydroxy-2-phenylacetamide] are 229 nM, 6.17 nM and 8.98 ± 0.06.
`O=C(NCC1C2CN(Cc3ccccc3)CC12)C(O)(c1ccccc1)C1CCC(F)C1` (single isomer, unassigned) [Compound No. 4, (2R or 2S)-(1α,5α,6α)-N-[3-benzyl-3-azabicyclo[3.1.0]hexyl-6-(aminomethyl)-yl]-2-[(1R or 1S, 3R or 3S)-3-fluorocyclopentyl]-2-hydroxy-2-phenyl acetamide]: the Ki on M2 muscarinic receptor (setting [1]) is 138 nM; at M3 muscarinic receptor (setting [2]) it was 5.89 nM. The “Functional Assay pKB” value with isolated rat bladder is on record as 8.33 ± 0.15.
For the compound `O=C(NCC1C2CN(Cc3ccccc3)CC12)C(O)(c1ccccc1)C1CCC(NS(=O)(=O)c2ccc([N+](=O)[O-])cc2)C1` (single isomer, unassigned) [Compound No. 6, (2R)-(1α,5α,6α)-N-[3-benzyl-3-azabicyclo[3.1.0]hexyl-6-(aminomethyl)-yl]-2-[(1R or 1S, 3R or 3S)-3-(4-nitrophenyl)sulphonylaminocyclopentyl]-2-hydroxy-2-phenylacetamide], the results for the Ki at M2 muscarinic receptor (Receptor Binding Assay M2 pKi) and on M3 muscarinic receptor (Receptor Binding Assay M3 pKi) were over 1580 nM and 21.9 nM, respectively. Besides, the “Functional Assay pKB” value with isolated rat bladder is 7.21 ± 0.20.
On to `O=C(COCc1ccccc1)NC1CCC(C(O)(C(=O)NCC2C3CN(Cc4ccccc4)CC23)c2ccccc2)C1` (single isomer, unassigned) [Compound No. 8, (2R)-(1α,5α,6α)-N-[3-benzyl-3-azabicyclo[3.1.0]hexyl-6-(aminomethyl)-yl]-2-[(1R or 1S, 3R or 3S)-3-benzyloxyacetylaminocyclopentyl]-2-hydroxy-2-phenylacetamide], for which the Ki at M2 muscarinic receptor (setting [1]) is 209 nM; on M3 muscarinic receptor (setting [2]) it was 34.7 nM. In addition, the “Functional Assay pKB” value in the test on isolated rat bladder is listed as 7.08 ± 0.18.
On the same counts, the results for `O=C(NC[C@@H]1[C@H]2CN(Cc3ccccc3)C[C@@H]12)[C@](O)(c1ccccc1)C1CCC(F)C1` (stereo partly drawn) [Compound No. 2, (2R(1α,5α,6α)-N-[3-benzyl-3-azabicyclo[3.1.0]hexyl-6-(aminomethyl)-yl]-2-[(1R or 1S, 3R or 3S)-3-fluorocyclopentyl]-2-hydroxy-2-phenylacetamide] are 126 nM, 3.98 nM and 8.84 ± 0.07.
On the same counts, the results for `O=C(Cc1ccccc1)NC1CCC([C@](O)(C(=O)NC[C@@H]2[C@H]3CN(Cc4ccccc4)C[C@@H]23)c2ccccc2)C1` (stereo partly drawn) [Compound No. 5, (2R)-(1α,5α,6α)-N-[3-benzyl-3-azabicyclo[3.1.0]hexyl-6-(aminomethyl)-yl]-2-[(1R or 1S, 3R or 3S)-3-phenylacetylaminocyclopentyl]-2-hydroxy-2-phenylacetamide] are 832 nM, 39.8 nM and 7.07 ± 0.11.
Take `O=C(NC[C@@H]1[C@H]2CN(Cc3ccccc3)C[C@@H]12)[C@](O)(c1ccccc1)C1CCC(NS(=O)(=O)c2ccccc2)C1` (stereo partly drawn) [Compound No. 7, (2R)-(1α,5α,6α)-N-[3-benzyl-3-azabicyclo[3.1.0]hexyl-6-(aminomethyl)-yl]-2-[(1R or 1S, 3R or 3S)-3-phenylsulphonylaminocyclopentyl]-2-hydroxy-2-phenylacetamide]: the results for the Ki on M2 muscarinic receptor (Receptor Binding Assay M2 pKi) and on M3 muscarinic receptor (Receptor Binding Assay M3 pKi) were over 1580 nM and 50.1 nM, respectively. The “Functional Assay pKB” value in the test on isolated rat bladder is 6.89 ± 0.29.
For `COc1ccc(S(=O)(=O)NC2CCC([C@](O)(C(=O)NC[C@@H]3[C@H]4CN(Cc5ccccc5)C[C@@H]34)c3ccccc3)C2)cc1` (stereo partly drawn) [Compound No. 9, (2R)-(1α,5α,6α)-N-[3-benzyl-3-azabicyclo[3.1.0]hexyl-6-(aminomethyl)-yl]-2-[(1R or 1S, 3R or 3S)-3-(4-methoxyphenyl)sulphonylaminocyclopentyl]-2-hydroxy-2-phenylacetamide], the results for the Ki on M2 muscarinic receptor (Receptor Binding Assay M2 pKi) and at M3 muscarinic receptor (Receptor Binding Assay M3 pKi) were over 1000 nM and 204 nM, respectively.
On the same counts, the results for `O=C(NC[C@@H]1[C@H]2CN(Cc3ccccc3)C[C@@H]12)[C@](O)(c1ccccc1)C1CCC(NS(=O)(=O)c2ccc(Br)cc2)C1` (stereo partly drawn) [Compound No. 10, (2R)-(1α,5α,6α)-N-[3-benzyl-3-azabicyclo[3.1.0]hexyl-6-(aminomethyl)-yl]-2-[(1R or 1S, 3R or 3S)-3-(4-bromophenyl)sulphonylaminocyclopentyl]-2-hydroxy-2-phenylacetamide] are over 1000 nM and 129 nM.
